This note sets out measurements from patent publication US20240376084A1, “INHIBITORS OF ALPHA-HEMOLYSIN OF STAPHYLOCOCCUS AUREUS” (Helmholtz-Zentrum Fur Infektionsforschung GmbH, priority 2021, published 2024).

Assay [1] has as its target S. aureus Alpha hemolysin (Staphylococcus aureus, UniProt P09616). The experiment in a line: cell-based. As to conditions: A549-LDH Assay activity.
Assay [2] has as its target hemolysin alpha from Staphylococcus aureus (Staphylococcus aureus, UniProt P09616). The assay is described as follows: cell-based.

Broadly, the EC50 is the concentration that produces a half-maximal response.

The structures appear in SMILES notation. Some results are limits rather than exact numbers.

Chain of S. aureus Alpha hemolysin (P09616 27-319 limits assumed): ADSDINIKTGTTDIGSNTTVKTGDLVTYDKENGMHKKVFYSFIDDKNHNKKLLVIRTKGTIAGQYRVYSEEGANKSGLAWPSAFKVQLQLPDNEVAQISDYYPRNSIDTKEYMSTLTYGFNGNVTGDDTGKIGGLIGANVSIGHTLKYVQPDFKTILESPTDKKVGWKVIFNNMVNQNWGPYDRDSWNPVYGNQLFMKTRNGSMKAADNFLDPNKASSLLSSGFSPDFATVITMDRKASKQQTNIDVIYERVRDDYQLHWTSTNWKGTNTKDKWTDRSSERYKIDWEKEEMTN
Chain of hemolysin alpha from Staphylococcus aureus (P09616 27-319 limits assumed): as above

Consider `Cc1cc2ccc(-c3ccc(NS(=O)(=O)c4cc5[nH]c(=O)c(=O)[nH]c5cc4C)cc3C(F)(F)F)cc2[nH]1` [Compound 364, 7-methyl-N-[4-(2-methyl-1H-indol-6-yl)-3-(trifluoromethyl)phenyl]-2,3-dioxo-1,4-dihydroquinoxaline-6-sulfonamide], for which the EC50 in assay [1] and in assay [2] was less than 30 nM each time.
Take `Cc1cc2[nH]c(=O)c(=O)[nH]c2cc1S(=O)(=O)Nc1ccc(-c2ccc3cccnc3c2)c(C(F)(F)F)c1` [Compound 365, 7-methyl-2,3-dioxo-N-[4-(7-quinolyl)-3-(trifluoromethyl)phenyl]-1,4-dihydroquinoxaline-6-sulfonamide]: the EC50 in assay [1] is 100 to 1000 nM; in assay [2], less than 30 nM.
Take `Cc1cc2[nH]c(=O)c(=O)[nH]c2cc1S(=O)(=O)Nc1ccc(-c2cccc(O)c2)c(C(F)(F)F)c1` [Compound 366, N-[4-(3-hydroxyphenyl)-3-(trifluoromethyl)phenyl]-7-methyl-2,3-dioxo-1,4-dihydroquinoxaline-6-sulfonamide]: the EC50 in assay [1] was 30 to 100 nM; in assay [2] it was less than 30 nM.
As to `Cc1cc2[nH]c(=O)c(=O)[nH]c2cc1S(=O)(=O)Nc1ccc(-c2ccc3c(c2)NC(=O)CO3)c(C(F)(F)F)c1` [Compound 367, 7-methyl-2,3-dioxo-N-[4-(3-oxo-4H-1,4-benzoxazin-6-yl)-3-(trifluoromethyl)phenyl]-1,4-dihydroquinoxaline-6-sulfonamide], the values for the EC50 in assay [1] and in assay [2] were 30 to 100 nM and less than 30 nM, respectively.
`Cc1cc2[nH]c(=O)c(=O)[nH]c2cc1S(=O)(=O)Nc1ccc(-c2ccc(F)c(C(N)=O)c2)c(C(F)(F)F)c1` [Compound 368, 2-fluoro-5-[4-[(7-methyl-2,3-dioxo-1,4-dihydroquinoxalin-6-yl)sulfonylamino]-2-(trifluoromethyl)phenyl]benzamide]: the figures for the EC50 in assay [1] and in assay [2] were 100 to 1000 nM and 30 to 100 nM, respectively.
On to `Cc1cc2[nH]c(=O)c(=O)[nH]c2cc1S(=O)(=O)Nc1ccc(-c2ccc3cc[nH]c3c2)c(C(F)(F)F)c1` [Compound 369, N-[4-(1H-indol-6-yl)-3-(trifluoromethyl)phenyl]-7-methyl-2,3-dioxo-1,4-dihydroquinoxaline-6-sulfonamide], for which the figures for the EC50 in assay [1] and in assay [2] were 30 to 100 nM and less than 30 nM, respectively.
Take `Cc1cc2[nH]c(=O)c(=O)[nH]c2cc1S(=O)(=O)Nc1ccc(-c2ccc3cn[nH]c3c2)c(Cl)c1` [Compound 370, N-[3-chloro-4-(1H-indazol-6-yl)phenyl]-7-methyl-2,3-dioxo-1,4-dihydroquinoxaline-6-sulfonamide]: the EC50 in assay [1] and in assay [2] was less than 30 nM each time.
For `C#Cc1cc(NS(=O)(=O)c2cc3[nH]c(=O)c(=O)[nH]c3cc2C)ccc1-c1ccc2oc(C)nc2c1` [Compound 373, N-[3-ethynyl-4-(2-methyl-1,3-benzoxazol-5-yl)phenyl]-7-methyl-2,3-dioxo-1,4-dihydroquinoxaline-6-sulfonamide], the EC50 in assay [1] and in assay [2] was less than 30 nM in each case.
`Cc1cc2[nH]c(=O)c(=O)[nH]c2cc1S(=O)(=O)Nc1ccc(-c2ccc3cc[nH]c3c2)c(Br)c1` [Compound 374, N-[3-bromo-4-(1H-indol-6-yl)phenyl]-7-methyl-2,3-dioxo-1,4-dihydroquinoxaline-6-sulfonamide]: the EC50 in assay [1] and in assay [2] was less than 30 nM in each case.
As for `Cc1nc2cc(-c3ncc(NS(=O)(=O)c4cc5[nH]c(=O)c(=O)[nH]c5cc4C)cc3Cl)ccc2o1` [Compound 375, N-[5-chloro-6-(2-methyl-1,3-benzoxazol-5-yl)-3-pyridyl]-7-methyl-2,3-dioxo-1,4-dihydroquinoxaline-6-sulfonamide], the EC50 in assay [1] and in assay [2] was 30 to 100 nM each time.
For the compound `Cc1cc2[nH]c(=O)c(=O)[nH]c2cc1S(=O)(=O)Nc1ccc(-c2ccc(C#N)cc2)c(Cl)c1` [Compound 376, N-[3-chloro-4-(4-cyanophenyl)phenyl]-7-methyl-2,3-dioxo-1,4-dihydroquinoxaline-6-sulfonamide], the figures for the EC50 in assay [1] and in assay [2] were 30 to 100 nM and less than 30 nM, respectively.
For `Cc1cc2[nH]c(=O)c(=O)[nH]c2cc1S(=O)(=O)Nc1ccc(-c2ccc(F)cc2)c(C#N)c1` [Compound 377, N-[3-cyano-4-(4-fluorophenyl)phenyl]-7-methyl-2,3-dioxo-1,4-dihydroquinoxaline-6-sulfonamide] the same measures were 100 to 1000 nM and 100 to 1000 nM.
`C#Cc1cc(NS(=O)(=O)c2cc3[nH]c(=O)c(=O)[nH]c3cc2C)ccc1-c1ccc(F)cc1` [Compound 378, N-[3-ethynyl-4-(4-fluorophenyl)phenyl]-7-methyl-2,3-dioxo-1,4-dihydroquinoxaline-6-sulfonamide]: the EC50 in assay [1] and in assay [2] was less than 30 nM each time.
As for `O=c1[nH]c2cc(C3CC3)c(S(=O)(=O)Nc3cnc(-c4ccc(F)cc4)c(Cl)c3)cc2[nH]c1=O` [Compound 379, N-[5-chloro-6-(4-fluorophenyl)-3-pyridyl]-7-cyclopropyl-2,3-dioxo-1,4-dihydroquinoxaline-6-sulfonamide], the EC50 in assay [1] and in assay [2] was 100 to 1000 nM in each case.
`COc1cc2[nH]c(=O)c(=O)[nH]c2cc1S(=O)(=O)Nc1ccc(Cl)cc1` [Compound 380, N-(4-chlorophenyl)-7-methoxy-2,3-dioxo-1,4-dihydroquinoxaline-6-sulfonamide]: the values for the EC50 in assay [1] and in assay [2] were 100 to 1000 nM and 1000 to 3500 nM, respectively.
For `CNc1cc2[nH]c(=O)c(=O)[nH]c2cc1S(=O)(=O)Nc1ccc(OC(F)(F)F)cc1` [Compound 381, 7-(methylamino)-2,3-dioxo-N-[4-(trifluoromethoxy)phenyl]-1,4-dihydroquinoxaline-6-sulfonamide] the same measures were 100 to 1000 nM and 100 to 1000 nM.
As for `O=c1[nH]c2cc(OC3CC3)c(S(=O)(=O)Nc3ccc(OC(F)(F)F)cc3)cc2[nH]c1=O` [Compound 382, 7-(cyclopropoxy)-2,3-dioxo-N-[4-(trifluoromethoxy)phenyl]-1,4-dihydroquinoxaline-6-sulfonamide], the half-maximal effective concentration (EC50) in assay [1] is 100 to 1000 nM; in assay [2], 1000 to 3500 nM.
Take `COc1cc2[nH]c(=O)c(=O)[nH]c2cc1S(=O)(=O)Nc1ccc(Br)cc1` [Compound 383, N-(4-bromophenyl)-7-methoxy-2,3-dioxo-1,4-dihydroquinoxaline-6-sulfonamide]: the EC50 is 100 to 1000 nM in assay [1] and 1000 to 3500 nM in assay [2].
Take `Cc1cc2[nH]c(=O)c(=O)[nH]c2cc1S(=O)(=O)Nc1ccc(C2COC2)cc1` [Compound 384, 7-methyl-N-[4-(oxetan-3-yl)phenyl]-2,3-dioxo-1,4-dihydroquinoxaline-6-sulfonamide]: the EC50 in assay [1] is 100 to 1000 nM; in assay [2] it was 1000 to 3500 nM.
For `Cc1cc2[nH]c(=O)c(=O)[nH]c2cc1S(=O)(=O)Nc1cnc(-n2nccn2)c(Cl)c1` [Compound 385, N-[5-chloro-6-(triazol-2-yl)-3-pyridyl]-7-methyl-2,3-dioxo-1,4-dihydroquinoxaline-6-sulfonamide] the same measures were 100 to 1000 nM and 1000 to 3500 nM.
As to `Cc1cc2[nH]c(=O)c(=O)[nH]c2cc1S(=O)(=O)Nc1ccc(-c2cccc(O)c2)c(Cl)c1` [Compound 386, N-[3-chloro-4-(3-hydroxyphenyl)phenyl]-7-methyl-2,3-dioxo-1,4-dihydroquinoxaline-6-sulfonamide], the EC50 in assay [1] and in assay [2] was less than 30 nM each time.
In the case of `[2H]C([2H])([2H])c1cc2[nH]c(=O)c(=O)[nH]c2cc1S(=O)(=O)Nc1ccc(-c2ccc(F)cc2)c(Cl)c1` [Compound 387, N-[3-chloro-4-(4-fluorophenyl)phenyl]-2,3-dioxo-7-(trideuteriomethyl)-1,4-dihydroquinoxaline-6-sulfonamide], the EC50 in assay [1] is 30 to 100 nM; in assay [2], less than 30 nM.
For `Cc1cc2[nH]c(=O)c(=O)[nH]c2cc1S(=O)(=O)Nc1ccc2c(c1)B(O)OC2` [Compound 388, N-(1-hydroxy-3H-2,1-benzoxaborol-6-yl)-7-methyl-2,3-dioxo-1,4-dihydroquinoxaline-6-sulfonamide] the same measures were 1000 to 6000 nM and 100 to 1000 nM.
`Cc1cc2[nH]c(=O)c(=O)[nH]c2cc1S(=O)(=O)Nc1ccc(-c2ccc(F)c(C(N)=O)c2)c(Cl)c1` [Compound 389, 5-[2-chloro-4-[(7-methyl-2,3-dioxo-1,4-dihydroquinoxalin-6-yl)sulfonylamino]phenyl]-2-fluoro-benzamide]: the EC50 in assay [1] was 30 to 100 nM; in assay [2] it was less than 30 nM.
For `Cc1cc2[nH]c(=O)c(=O)[nH]c2cc1S(=O)(=O)Nc1ccc(-c2cc(F)cc(C(N)=O)c2)c(Cl)c1` [Compound 390, 3-[2-chloro-4-[(7-methyl-2,3-dioxo-1,4-dihydroquinoxalin-6-yl)sulfonylamino]phenyl]-5-fluoro-benzamide], the concentration giving a half-maximal response (EC50) in assay [1] and in assay [2] was less than 30 nM in each case.
As to `COc1cc2[nH]c(=O)c(=O)[nH]c2cc1S(=O)(=O)Nc1ccc(OC(F)F)cc1` [Compound 391, N-[4-(difluoromethoxy)phenyl]-7-methoxy-2,3-dioxo-1,4-dihydroquinoxaline-6-sulfonamide], the EC50 in assay [1] lay in the range of 100 to 1000 nM; in assay [2], 1000 to 3500 nM.
For `[2H]C([2H])([2H])c1cc2[nH]c(=O)c(=O)[nH]c2cc1S(=O)(=O)Nc1cnc(-c2ccc(F)cc2)c(Cl)c1` [Compound 392, N-[5-chloro-6-(4-fluorophenyl)-3-pyridyl]-2,3-dioxo-7-(trideuteriomethyl)-1,4-dihydroquinoxaline-6-sulfonamide] the same measures were 100 to 1000 nM and 30 to 100 nM.
Take `Cc1cc2[nH]c(=O)c(=O)[nH]c2cc1S(=O)(=O)Nc1ccc(-c2ccc(F)c(C#N)c2)c(Cl)c1` [Compound 393, N-[3-chloro-4-(3-cyano-4-fluoro-phenyl)phenyl]-7-methyl-2,3-dioxo-1,4-dihydroquinoxaline-6-sulfonamide]: the EC50 lay within 100 to 1000 nM in assay [1] and 30 to 100 nM in assay [2].
In the same order, the values of `Cc1cc2[nH]c(=O)c(=O)[nH]c2cc1S(=O)(=O)Nc1ccc(OC(F)F)cc1` [Compound 394, N-[4-(difluoromethoxy)phenyl]-7-methyl-2,3-dioxo-1,4-dihydroquinoxaline-6-sulfonamide] are 30 to 100 nM and 100 to 1000 nM.
